Like-named read-outs stand apart in the source and are kept apart here.
Key:
Format in all cases: cell-based
EGFR L858R/C797S = molecular target: T1, EGFR L858R/C797S (Homo sapiens, UniProt P00533, C797S/L858R); assay: EGFR degradation HTRF assay in BaF3 LC cells; settings: BaF3 LC (L858R/C797S); for DC50: 16 h treatment, HTRF; for Dmax: maximum percentage of inhibition (degradation), read-out: BaF3 LC Dmax (%)
T1 construct: expressed in transfected cells; host or cells: BaF3 LC
Summary of the method: (§1)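 BaF3 cells expressing EGFR L858R/C797S or L858R/T790M/C797S treated 16 h at 37 °C with compounds (top 10 uM, 5-fold, 8 doses; 0.2% DMSO). Remaining EGFR quantified by HTRF in lysates after overnight antibody incubation. Degradation percentage versus DMSO controls; DC50 from four-parameter fit, Dmax as maximal degradation.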

EGFR Del19/C797S = assay: EGFR degradation HTRF assay in H1975-clone #23 (H1975 #23 DC); settings: H1975-clone #23 (Del19/C797S); for DC50: 16 h treatment, HTRF; for H1975 #23 DC Dmax (%): maximum percentage of inhibition (degradation)
Experimental: (§2) Cell Line Generation H1975-clone #28(Del19/T790M/C797S) and H1975-clone #23(Del19/C797S). EGFR-Del19/T790M/C797S and EGFR-Del19/C797S were stably expressed in H1975 cell lines by lentivirus-mediated over-expression, respectively. The EGFR over-expressed cells then underwent gene knockout, in which the EGFR targeting sgRNA was designed to only target the endogenous EGFR copies and preserve the exogenous EGFR copies. Followed by the gene knockout, the edited H1975 cells were seeded in 96 well plates at the concentration of 1 cell/well, cultured for about 2 weeks to allow single clones formation. The formed clones were screened by DNA sequencing and whole exon sequencing analysis for the desired edition. H1975-clone #28 and H1975-clone #23 were finally confirmed as homozygous Del19/T790M/C797S EGFR and Del19/C797S EGFR clones, respectively.
(§3) After 16 h treatment, add HTRF lysis buffer to each well; seal the plate and incubate 1 hour at room temperature on a plate shaker; Once the cells are lysed, 16 μL of cell lysate are transferred to a PE 384-well HTRF detection plate; 4 μL of pre-mixed HTRF antibodies are added to each well; Cover the plate with a plate sealer, spin 1000 rpm for 1 min, Incubate overnight at room temperature; Read on BMG PheraStar with HTRF protocol (337 nm-665 nm-620 nm).
(§4) The inhibition (degradation) percentage of the compound was calculated by the following equation: Inhibition percentage of Compound=100−100×(Signal−low control)/(High control−low control), wherein signal=each test compound group
(§5) High control=Cell group with added DMSO and without compound, indicating microplate readings without EGFR degradation;
(§6) Dmax is the maximum percentage of inhibition (degradation).
(§7) The IC50 (DC50) value of a compound can be obtained by fitting the following equation
(§8) Y=Bottom+(TOP−Bottom)/(1+((IC50/X)^hillslope))
Wherein, X and Y are known values, and IC50, Hillslope, Top and Bottom are the parameters obtained by fitting with software. Y is the inhibition percentage (calculated from the equation), X is the concentration of the compound; IC50 is the concentration of the compound when the 50% inhibition is reached. The smaller the IC50 value is, the stronger the inhibitory ability of the compound is. Vice versa, the higher the IC50 value is, the weaker the inhibitory ability of the compound is; Hillslope represents the slope of the fitted curve, generally around 1*; Bottom represents the minimum value of the curve obtained by data fitting, which is generally 0%±20%; Top represents the maximum value of the curve obtained by data fitting, which is generally 100%±20%. The experimental data were fitted by calculating and analyzing with Dotmatics data analysis software.

EGFR L858R/T790M/C797S = molecular target: T2, EGFR L858R/T790M/C797S (Homo sapiens, UniProt P00533, C797S/L858R/T790M); assay: EGFR degradation HTRF assay in BaF3-LTC cells; settings: for Dmax: read-out: BaF3-LTC Dmax (%)
T2 construct: expressed in transfected cells; host or cells: BaF3-LTC
Summary of the method: as §1

EGFR Del19/T790M/C797S = assay: EGFR degradation HTRF assay in H1975-clone #28 (H1975 #28 DTC); settings: H1975-clone #28 (Del19/T790M/C797S), maximum percentage of inhibition (degradation)
Experimental: as §2, §3, §4, §5, §6, §7, §8
Wherein, X and Y are known values, and IC50, Hillslope, Top and Bottom are the parameters obtained by fitting with software. […]

[1] = BaF3-LTC (L858R/T790M/C797S), maximum percentage of inhibition (degradation)

T2 sequence (P00533 25-1210 T790M/C797S/L858R): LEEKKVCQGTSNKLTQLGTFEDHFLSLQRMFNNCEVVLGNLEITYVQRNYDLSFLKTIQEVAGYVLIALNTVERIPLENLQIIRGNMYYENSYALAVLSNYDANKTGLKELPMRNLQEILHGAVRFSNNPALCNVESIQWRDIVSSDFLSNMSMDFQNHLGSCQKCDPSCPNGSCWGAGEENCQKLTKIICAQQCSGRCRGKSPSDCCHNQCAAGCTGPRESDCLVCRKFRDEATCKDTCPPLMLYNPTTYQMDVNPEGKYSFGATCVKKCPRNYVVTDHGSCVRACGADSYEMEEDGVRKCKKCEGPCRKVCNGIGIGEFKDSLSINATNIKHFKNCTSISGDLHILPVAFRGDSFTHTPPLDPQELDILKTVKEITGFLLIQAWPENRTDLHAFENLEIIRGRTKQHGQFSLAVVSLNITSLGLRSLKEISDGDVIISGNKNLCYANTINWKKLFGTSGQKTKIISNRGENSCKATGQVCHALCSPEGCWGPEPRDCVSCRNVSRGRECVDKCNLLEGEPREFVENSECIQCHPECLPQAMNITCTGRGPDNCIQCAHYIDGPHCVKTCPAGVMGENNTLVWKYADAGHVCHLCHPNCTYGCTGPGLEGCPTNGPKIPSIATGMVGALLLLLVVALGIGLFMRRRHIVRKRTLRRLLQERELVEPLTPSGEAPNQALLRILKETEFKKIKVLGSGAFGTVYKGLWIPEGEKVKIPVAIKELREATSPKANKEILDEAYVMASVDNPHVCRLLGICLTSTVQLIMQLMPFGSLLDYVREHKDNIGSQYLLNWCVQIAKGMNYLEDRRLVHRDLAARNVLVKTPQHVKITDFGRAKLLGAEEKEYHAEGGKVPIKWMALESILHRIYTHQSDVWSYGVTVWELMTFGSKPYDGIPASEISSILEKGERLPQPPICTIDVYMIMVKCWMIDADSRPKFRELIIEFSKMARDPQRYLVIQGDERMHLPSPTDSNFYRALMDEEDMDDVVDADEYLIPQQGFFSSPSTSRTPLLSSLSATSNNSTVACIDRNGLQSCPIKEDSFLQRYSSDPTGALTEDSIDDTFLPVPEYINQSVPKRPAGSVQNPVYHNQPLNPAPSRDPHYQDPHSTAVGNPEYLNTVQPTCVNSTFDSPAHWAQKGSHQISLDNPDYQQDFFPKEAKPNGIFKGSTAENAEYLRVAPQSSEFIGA
T1 sequence (P00533 25-1210 C797S/L858R): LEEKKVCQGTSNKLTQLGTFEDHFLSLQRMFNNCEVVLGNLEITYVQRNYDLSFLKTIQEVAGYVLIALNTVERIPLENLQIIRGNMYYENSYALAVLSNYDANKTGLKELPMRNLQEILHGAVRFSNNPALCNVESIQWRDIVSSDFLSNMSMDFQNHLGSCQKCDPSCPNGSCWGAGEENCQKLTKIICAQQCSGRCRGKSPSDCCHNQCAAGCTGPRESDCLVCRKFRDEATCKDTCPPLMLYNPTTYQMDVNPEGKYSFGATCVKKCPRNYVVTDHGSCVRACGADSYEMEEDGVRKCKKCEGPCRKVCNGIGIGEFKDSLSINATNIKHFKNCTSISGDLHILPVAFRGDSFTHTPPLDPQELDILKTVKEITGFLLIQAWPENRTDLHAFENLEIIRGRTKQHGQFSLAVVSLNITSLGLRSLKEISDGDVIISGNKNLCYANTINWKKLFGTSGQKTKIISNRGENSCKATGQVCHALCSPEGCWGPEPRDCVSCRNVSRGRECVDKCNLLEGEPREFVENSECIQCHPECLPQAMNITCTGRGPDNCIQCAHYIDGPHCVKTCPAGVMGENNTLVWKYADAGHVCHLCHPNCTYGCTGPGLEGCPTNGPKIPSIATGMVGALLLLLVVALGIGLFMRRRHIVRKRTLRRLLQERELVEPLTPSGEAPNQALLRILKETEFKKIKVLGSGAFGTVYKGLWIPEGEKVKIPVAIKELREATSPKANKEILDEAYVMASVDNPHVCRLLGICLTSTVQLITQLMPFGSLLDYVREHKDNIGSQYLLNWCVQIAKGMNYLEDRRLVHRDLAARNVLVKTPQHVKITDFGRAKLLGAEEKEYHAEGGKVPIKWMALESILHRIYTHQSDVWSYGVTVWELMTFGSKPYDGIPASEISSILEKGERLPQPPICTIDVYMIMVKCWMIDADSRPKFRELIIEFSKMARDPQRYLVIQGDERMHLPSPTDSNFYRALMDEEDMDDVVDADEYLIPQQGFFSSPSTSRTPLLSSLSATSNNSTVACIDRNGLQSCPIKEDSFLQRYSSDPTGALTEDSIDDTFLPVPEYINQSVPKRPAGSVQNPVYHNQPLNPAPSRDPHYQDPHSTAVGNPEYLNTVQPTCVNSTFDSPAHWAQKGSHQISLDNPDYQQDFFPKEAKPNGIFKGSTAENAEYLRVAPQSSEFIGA

SMILES | Dmax (EGFR L858R/C797S) | Dmax (EGFR L858R/T790M/C797S; [1]) | further results
CCc1cc(Nc2ncc(Br)c(Nc3ccc4nc(C)ccc4c3P(C)(C)=O)n2)c(OC2CC2)cc1N1CCC(N2CCN(CCc3cc(F)c([C@H]4CCC(=O)NC4=O)c(F)c3)CC2)CC1 [Example 459, (R)-3-(4-(2-(4-(1-(4-((5-bromo-4-((5-(dimethylphosphoryl)-2-methylquinolin-6-yl)amino)pyrimidin-2-yl)amino)-5-cyclopropoxy-2-ethylphenyl)piperidin-4-yl)piperazin-1-yl)ethyl)-2,6-difluorophenyl)piperidine-2,6-dione] | 76.6% | 86.9% | DC50 (EGFR L858R/C797S): 20.7 nM; DC50 (EGFR Del19/C797S): 6.01 nM; H1975 #23 DC Dmax (%) (EGFR Del19/C797S): 91.45%; DC50 (EGFR L858R/T790M/C797S; BaF3-LTC (L858R/T790M/C797S), 16 h treatment, HTRF): 7.54 nM
COc1cc(N2CCC3(CCN(CCCCCOc4cccc5c4CN(C4CCC(=O)NC4=O)C5=O)CC3)CC2)c(C)cc1Nc1ncc(Br)c(Nc2ccc3nccnc3c2P(C)(C)=O)n1 (centres unmarked) [Example 542, 3-(4-((5-(9-(4-((5-bromo-4-((5-(dimethylphosphoryl)quinoxalin-6-yl)amino)pyrimidin-2-yl)amino)-5-methoxy-2-methylphenyl)-3,9-diazaspiro[5.5]undecan-3-yl)pentyl)oxy)-1-oxoisoindolin-2-yl)piperidine-2,6-dione] | 90% | 95.6% | DC50 (EGFR L858R/C797S): 16.2 nM; DC50 (EGFR Del19/C797S): > 10000 nM; H1975 #23 DC Dmax (%) (EGFR Del19/C797S): 31.04%
CCOc1cc(N2CCC(N3CCN(CCc4cccc5c4oc(=O)n5C4CCC(=O)NC4=O)CC3)CC2)c(CC)cc1Nc1ncc(Br)c(Nc2ccc3nc(CC)ncc3c2P(C)(C)=O)n1 (centres unmarked) [Example 563, 3-(7-(2-(4-(1-(4-((5-bromo-4-((5-(dimethylphosphoryl)-2-ethylquinazolin-6-yl)amino)pyrimidin-2-yl)amino)-5-ethoxy-2-ethylphenyl)piperidin-4-yl)piperazin-1-yl)ethyl)-2-oxobenzo[d]oxazol-3(2H)-yl)piperidine-2,6-dione] |  |  | H1975 # 28 DTC Dmax (%) (EGFR Del19/T790M/C797S): 81.88%; Dmax (EGFR L858R/T790M/C797S): 92.6%
CCc1ncc2c(P(C)(C)=O)c(Nc3nc(Nc4cc(CC)c(N5CCC(N6CCN(CCc7cc(F)c([C@H]8CCC(=O)NC8=O)c(F)c7)CC6)CC5)cc4OC)ncc3Br)ccc2n1 [Example 589, (R)-3-(4-(2-(4-(1-(4-((5-bromo-4-((5-(dimethylphosphoryl)-2-ethylquinazolin-6-yl)amino)pyrimidin-2-yl)amino)-2-ethyl-5-methoxyphenyl)piperidin-4-yl)piperazin-1-yl)ethyl)-2,6-difluorophenyl)piperidine-2,6-dione] | 92.4% | 85.9% | 
CCOc1cc(N2CCC(N3CCN(CCc4cccc5c4n(CC)c(=O)n5C4CCC(=O)NC4=O)CC3)CC2)c(CC)cc1Nc1ncc(Br)c(Nc2cc(F)c3nc(CC)ccc3c2P(C)(C)=O)n1 (centres unmarked) [Example 643, 3-(4-(2-(4-(1-(4-((5-bromo-4-((5-(dimethylphosphoryl)-2-ethyl-8-fluoroquinolin-6-yl)amino)pyrimidin-2-yl)amino)-5-ethoxy-2-ethylphenyl)piperidin-4-yl)piperazin-1-yl)ethyl)-3-ethyl-2-oxo-2,3-dihydro-1H-benzo[d]imidazol-1-yl)piperidine-2,6-dione] | 94.1% | 91.2% | 
CCc1cc(Nc2ncc(Br)c(Nc3ccc4nc(C)ccc4c3P(C)(C)=O)n2)c(OC)cc1N1CCC(N2CCN(C(=O)[C@@H]3CCN(c4cc(F)c([C@H]5CCC(=O)NC5=O)c(F)c4)C3)CC2)CC1 [Example 750, (R)-3-(4-((R)-3-(4-(1-(4-((5-bromo-4-((5-(dimethylphosphoryl)-2-methylquinolin-6-yl)amino)pyrimidin-2-yl)amino)-2-ethyl-5-methoxyphenyl)piperidin-4-yl)piperazine-1-carbonyl)pyrrolidin-1-yl)-2,6-difluorophenyl)piperidine-2,6-dione] | 94.3% | 95.4% | 
CCOc1cc(N2CCC(N3CCN(CCc4cccc5c4n(C)c(=O)n5C4CCC(=O)NC4=O)CC3)CC2)c(CC)cc1Nc1ncc(Br)c(Nc2ccc3nc(CC)ccc3c2P(C)(C)=O)n1 (centres unmarked) [Example 752, 3-(4-(2-(4-(1-(4-((5-bromo-4-((5-(dimethylphosphoryl)-2-ethylquinolin-6-yl)amino)pyrimidin-2-yl)amino)-5-ethoxy-2-ethylphenyl)piperidin-4-yl)piperazin-1-yl)ethyl)-3-methyl-2-oxo-2,3-dihydro-1H-benzo[d]imidazol-1-yl)piperidine-2,6-dione] | 94% | 94.7% | 
CCc1cc(Nc2ncc(Br)c(Nc3ccc4c(=O)n(CC)ncc4c3P(C)(C)=O)n2)c(OC)cc1N1CCC(N2CCN(CCc3cc(F)c([C@H]4CCC(=O)NC4=O)c(F)c3)CC2)CC1 [Example 753, (R)-3-(4-(2-(4-(1-(4-((5-bromo-4-((5-(dimethylphosphoryl)-2-ethyl-1-oxo-1,2-dihydrophthalazin-6-yl)amino)pyrimidin-2-yl)amino)-2-ethyl-5-methoxyphenyl)piperidin-4-yl)piperazin-1-yl)ethyl)-2,6-difluorophenyl)piperidine-2,6-dione] | 88.9% | 93.2% | 
CCc1ccc2c(P(C)(C)=O)c(Nc3nc(Nc4cc(CC)c(N5CCC(N6CCN(C(=O)[C@H]7CN(c8cc(F)c([C@H]9CCC(=O)NC9=O)c(F)c8)CC7(C)C)CC6)CC5)cc4OC)ncc3Br)ccc2n1 [Example 754, (R)-3-(4-((R)-4-(4-(1-(4-((5-bromo-4-((5-(dimethylphosphoryl)-2-ethylquinolin-6-yl)amino)pyrimidin-2-yl)amino)-2-ethyl-5-methoxyphenyl)piperidin-4-yl)piperazine-1-carbonyl)-3,3-dimethylpyrrolidin-1-yl)-2,6-difluorophenyl)piperidine-2,6-dione] | 87.3% | 96.3% | 
CCc1ccc2c(P(C)(C)=O)c(Nc3nc(Nc4cc(CC)c(N5CCC(N6CCN(C(=O)C7CN(c8cc(F)c([C@H]9CCC(=O)NC9=O)c(F)c8)C7)CC6)CC5)cc4OC)ncc3Br)ccc2n1 [Example 755, (R)-3-(4-(3-(4-(1-(4-((5-bromo-4-((5-(dimethylphosphoryl)-2-ethylquinolin-6-yl)amino)pyrimidin-2-yl)amino)-2-ethyl-5-methoxyphenyl)piperidin-4-yl)piperazine-1-carbonyl)azetidin-1-yl)-2,6-difluorophenyl)piperidine-2,6-dione] | 91.7% | 98.6% | 
CCc1cc(Nc2ncc(Br)c(Nc3ccc4c(=O)n(C)ncc4c3P(C)(C)=O)n2)c(OC)cc1N1CCC(N2CCN(CCc3cccc4c3C3(CC3)C(=O)N4C3CCC(=O)NC3=O)CC2)CC1 (centres unmarked) [Example 756, 3-(4′-(2-(4-(1-(4-((5-bromo-4-((5-(dimethylphosphoryl)-2-methyl-1-oxo-1,2-dihydrophthalazin-6-yl)amino)pyrimidin-2-yl)amino)-2-ethyl-5-methoxyphenyl)piperidin-4-yl)piperazin-1-yl)ethyl)-2′-oxospiro[cyclopropane-1,3′-indolin]-1′-yl)piperidine-2,6-dione] | 94.5% | 97% | 

Reference: patent US20230248834A1, “DEGRADATION OF (EGFR) BY CONJUGATION OF EGFR INHIBITORS WITH E3 LIGASE LIGAND AND METHODS OF USE” (BEIGENE, LTD., priority 2020, published 2023)
